Consider 26 compounds from patent publication US7141560B2, “Alanine 2,6-dialkoxyphenyl ester derivatives as hypnotics” (Akzo Nobel N.V., priority 2001, dated 2006).

The test relates to mice. The experiment in a line: Hypnotic activity: loss of righting reflex after intravenous injection in mice. In kind it is in vivo. The following applies: intravenous injection over 10 seconds, dose causing loss of righting reflex for minimum 30 seconds in 50% of treated mice. Here is the method: The hypnotic potency of the alanine 2,6-dialkoxyphenyl ester derivatives of the invention was determined upon their intravenous administration in mice. The dose required to cause a loss of righting reflex for a minimum period of 30 seconds in 50% of treated mice after intravenous injection over 10 seconds was determined. This dose is termed the HD50 (hypnotic dose50) and is expressed in μmol.kg^−1. These in vivo experiments were carried out as described in detail by Anderson et al., J. Med. Chem. 1997, 40, 1668–1681.

For `COCCN(CCOC)C(CC(=O)OC)C(=O)Oc1c(OC)cccc1OC` (centres unmarked) [Example 24a, Butanedioic, 2-[N-bis(2-methoxyethyl)amino]-, 1-(2,6-dimethoxyphenyl)ester, 4-methyl ester], the “HD50 (hypnotic dose50)” value stood at 48 µmol/kg.
On to `COCCN(CCOC)C(CC(=O)OC)C(=O)Oc1c(OC)cc(C)cc1OC` (centres unmarked) [Example 24b, Butanedioic, 2-[N-bis(2-methoxyethyl)amino]-, 1-(2,6-dimethoxy-4-methylphenyl)ester, 4-methyl ester], for which the “HD50 (hypnotic dose50)” value worked out at 48 µmol/kg.
Under `COC(=O)CC(C(=O)Oc1c(OC)cc(C)cc1OC)N1CCOCC1` (centres unmarked) [Example 26b, Butanedioic, 2-(4-morpholinyl)-, 1-(2,6-dimethoxy-4-methylphenyl)ester, 4-methyl ester] stands 46 µmol/kg.
On to `COC(=O)CC(C(=O)Oc1c(OC)cccc1OC)N1CCCCC1` (centres unmarked) [Example 28a, Butanedioic, 2-(1-piperidinyl)-, 1-(2,6-dimethoxyphenyl)ester, 4-methyl ester], for which the “HD50 (hypnotic dose50)” value was found to be 26 µmol/kg.
In the case of `COC(=O)CC(C(=O)Oc1c(OC)cc(C)cc1OC)N1CCCCC1` (centres unmarked) [Example 28b, Butanedioic, 2-(1-piperidinyl)-, 1-(2,6-dimethoxy-4-methylphenyl)ester, 4-methyl ester], the “HD50 (hypnotic dose50)” value was found to be 48 µmol/kg.
Under `COC(=O)CC(C(=O)Oc1c(OC)cccc1OC)N1CCCCCC1` (centres unmarked) [Example 30a, Butanedioic, 2-(1-hexahydroazepinyl)-, 1-(2,6-dimethoxyphenyl)ester, 4-methyl ester] stands 23 µmol/kg; under `COC(=O)CC(C(=O)Oc1c(OC)cc(C)cc1OC)N1CCCCCC1` (centres unmarked) [Example 30b, Butanedioic, 2-(1-hexahydroazepinyl)-, 1-(2,6-dimethoxy-4-methyl-phenyl)ester, 4-methyl ester], 26 µmol/kg.
With `CCN(CC)C(=O)CC(C(=O)Oc1c(OC)cc(C)cc1OC)N1CCOCC1` (centres unmarked) [Example 32a, Butanedioic, 4-(diethylamino)-4-oxo-, 2-(4-morpholinyl)-, 1-(2,6-dimethoxy4-methylphenyl)ester], the “HD50 (hypnotic dose50)” value was 38 µmol/kg.
Next, `COc1cc(C)cc(OC)c1OC(=O)C(CC(=O)N1CCCCC1)N1CCCCC1` (centres unmarked) [Example 34a, Butanedioic, 4-(1-piperidinyl)-4-oxo-, 2-(1-piperidinyl)-, 1-(2,6-dimethoxy-4-methylphenyl)ester]: 38 µmol/kg; `COc1cccc(OC)c1OC(=O)C(CC(=O)N1CCCCC1)N1CCCCC1` (centres unmarked) [Example 34b, Butanedioic, 4-(1-piperidinyl)-4-oxo-, 2-(1-piperidinyl)-1-(2,6-dimethoxyphenyl)ester]: 39 µmol/kg; `COc1cccc(OC)c1OC(=O)C(CC(=O)N1CCCC1)N1CCCCCC1` (centres unmarked) [Example 36, Butanedioic, 2-(1-hexahydroazepinyl)-4-oxo-4-(1-pyrrolidinyl)-, 1-(2,6-dimethoxyphenyl)ester]: 34 µmol/kg.
Under `COc1cc(C)cc(OC)c1OC(=O)C(CCSC)N1CCOCC1` (centres unmarked) [Example 39a, Butanoic acid, 4-(methylthio)-2-(4-morpholinyl)-, 1-(2,6-dimethoxy-4-methylphenyl)ester] stands 35 µmol/kg.
Under `COc1cc(C)cc(OC)c1OC(=O)C(CCSC)N1CCCC1` (centres unmarked) [Example 39b, Butanoic acid, 4-(methylthio)-2-(1-pyrrolidinyl)-, 1-(2,6-dimethoxy-4-methylphenyl)ester] stands 31 µmol/kg; under `COCCN(CCOC)C(CCSC)C(=O)Oc1c(OC)cc(C)cc1OC` (centres unmarked) [Example 39c, Butanoic acid, 2-[N-bis(2-methoxyethyl)amino]-4-(methylthio), 1-(2,6-dimethoxy-4-methylphenyl)ester], 23 µmol/kg.
In the case of `COc1cccc(OC)c1OC(=O)C(CCSC)N1CCCCC1` (centres unmarked) [Example 40a, Butanoic acid, 4-(methylthio)-2-(1-piperidinyl)-, 1-(2,6-dimethoxyphenyl)ester], the “HD50 (hypnotic dose50)” value is less than 26 µmol/kg.
As for `COc1cccc(OC)c1OC(=O)C(CCSC)N1CCCC1` (centres unmarked) [Example 40b, Butanoic acid, 4-(methylthio)-2-(1-pyrrolidinyl)-, 1-(2,6-dimethoxyphenyl)ester], the “HD50 (hypnotic dose50)” value turned out to be 40 µmol/kg.
Next, `COc1cccc(OC)c1OC(=O)C(CCSC)N1CCCCCC1` (centres unmarked) [Example 40c, Butanoic acid, 2-(1-hexahydroazepinyl)-4-(methylthio), 1-(2,6-dimethoxyphenyl)ester]: 18 µmol/kg; `COc1cccc(OC)c1OC(=O)C(CCSC)N1CCCCCCC1` (centres unmarked) [Example 40d, Butanoic acid, 2-(1-hexahydroazocinyl)-4-(methylthio), 1-(2,6-dimethoxyphenyl)ester]: 35 µmol/kg; `COc1cc(C)cc(OC)c1OC(=O)C(CCS(C)(=O)=O)N1CC=CCC1` (centres unmarked) [Example 43, Butanoic acid, 4-(methylsulphonyl)-2-(1-[1,2,3,6-tetrahydropyridinyl])-, 1-(2,6-dimethoxy-4-methylphenyl)ester]: 39 µmol/kg.
Next, `COC(=O)CCC(C(=O)Oc1c(OC)cccc1OC)N1CCCCC1.Cl` (centres unmarked) [Example 47a, Pentanedioic acid, 2-(1-piperidinyl)-, 1-(2,6-dimethoxyphenyl)ester, 5-methyl ester hydrochloride (1:1) salt]: 50 µmol/kg; `COC(=O)CCC(C(=O)Oc1c(OC)cccc1OC)N1CCCCCC1.Cl` (centres unmarked) [Example 47b, Pentanedioic acid, 2-(1-hexahydroazepinyl)-, 1-(2,6-dimethoxyphenyl)ester, 5-methyl ester hydrochloride (1:1) salt]: 36 µmol/kg; `COC(=O)CCC(C(=O)Oc1c(OC)cccc1OC)N1CCSCC1.Cl` (centres unmarked) [Example 47c, Pentanedioic acid, 2-(N-thiomorpholinyl)-, 1-(2,6-dimethoxyphenyl)ester, 5-methyl ester hydrochloride (1:1) salt]: 44 µmol/kg.
Next, `COCCN(CCOC)C(CCC(=O)OC)C(=O)Oc1c(OC)cccc1OC.Cl` (centres unmarked) [Example 48, Pentanedioic acid, 2-[bis-(2-methoxyethyl)amino]-, 1-(2,6-dimethoxyphenyl)ester, 5-methyl ester hydrochloride (1:1) salt]: 37 µmol/kg; `COC(=O)CCC(C(=O)Oc1c(OC)cc(C)cc1OC)N1CCCC1.Cl` (centres unmarked) [Example 49a, Pentanedioic acid, 2-(1-pyrrolidinyl)-, 1-(2,6-dimethoxy4-methylphenyl)-ester, 5-methyl ester hydrochloride (1:1) salt]: 50 µmol/kg; `COC(=O)CCC(C(=O)Oc1c(OC)cc(C)cc1OC)N1CCCCC1.Cl` (centres unmarked) [Example 49b, Pentanedioic acid, 2-(1-piperidinyl)-, 1-(2,6-dimethoxy-4-methylphenyl)ester, 5-methyl ester hydrochloride (1:1) salt]: 47 µmol/kg.
In the case of `CCOCCN(CCOCC)C(CCC(=O)OC)C(=O)Oc1c(OC)cc(C)cc1OC.Cl` (centres unmarked) [Example 50], the “HD50 (hypnotic dose50)” value was determined as 40 µmol/kg.
